According to ChEMBL document CHEMBL6127119 (J Med Chem, 2024):
≈ marks a conversion by molar mass, not a printed value.

What was measured:
Type in all cases: functional
Conditions in all cases: time 16-24 hrs
[1] = test system: Staphylococcus aureus; experiment: Antibacterial activity against methicillin-susceptible Staphylococcus aureus incubated for 16 to 24 hrs by CLSI based broth microdilution method
[2] = test system: Staphylococcus aureus; experiment: Antibacterial activity against vancomycin-intermediate Staphylococcus aureus incubated for 16 to 24 hrs by CLSI based broth microdilution method
[3] = test system: Enterococcus faecium; experiment: Antibacterial activity against vancomycin-resistant Enterococcus faecium harboring VanA phenotype incubated for 16 to 24 hrs by CLSI based broth microdilution method
[4] = test system: Enterococcus faecium; experiment: Antibacterial activity against vancomycin-resistant Enterococcus faecium harboring VanM phenotype incubated for 16 to 24 hrs by CLSI based broth microdilution method
[5] = test system: Enterococcus faecium; experiment: Antibacterial activity against vancomycin-resistant Enterococcus faecium harboring VanB phenotype incubated for 16 to 24 hrs by CLSI based broth microdilution method
[6] = test system: Escherichia coli; experiment: Antibacterial activity against Escherichia coli AB1157 incubated for 16 to 24 hrs by CLSI based broth microdilution method
[7] = test system: Acinetobacter baumannii; experiment: Antibacterial activity against Carbapenem-resistant Acinetobacter baumannii clinical isolate incubated for 16 to 24 hrs by CLSI based broth microdilution method
[8] = test system: Klebsiella pneumoniae; experiment: Antibacterial activity against Klebsiella pneumoniae clinical isolate incubated for 16 to 24 hrs by CLSI based broth microdilution method
[9] = test system: Pseudomonas aeruginosa; experiment: Antibacterial activity against Pseudomonas aeruginosa PAO1 incubated for 16 to 24 hrs by CLSI based broth microdilution method

| Structure (SMILES) | MIC [1] [µg/mL] | MIC [2] [µg/mL] | MIC [3] [µg/mL] | MIC [4] [µg/mL] | MIC [5] [µg/mL] | MIC [6] [µg/mL] | MIC [7] [µg/mL] | MIC [8] [µg/mL] | MIC [9] [µg/mL] |
| --- | --- | --- | --- | --- | --- | --- | --- | --- | --- |
| CC(C)C[C@@H](N)C(=O)N[C@H]1C(=O)N[C@@H](CC(N)=O)C(=O)N[C@H]2C(=O)N[C@H]3C(=O)N[C@H](C(=O)N[C@H](C(=O)NCc4ccc(-c5cccc(CN)c5)cc4)c4cc(O)cc(O)c4-c4cc3ccc4O)[C@H](O)c3ccc(c(Cl)c3)Oc3cc2cc(c3O[C@@H]2O[C@H](CO)[C@@H](O)[C@H](O)[C@H]2O[C@H]2C[C@](C)(N)[C@H](O)[C@H](C)O2)Oc2ccc(cc2Cl)[C@H]1O | 0.125 (≈ 0.0767 µM) | 0.5 (≈ 0.307 µM) | 8 (≈ 4.91 µM) | 2 (≈ 1.23 µM) | 8 (≈ 4.91 µM) | 16 (≈ 9.82 µM) | > 128 | > 128 | 128 (≈ 78.6 µM) |
| CN[C@H](CC(C)C)C(=O)N[C@H]1C(=O)N[C@@H](CC(N)=O)C(=O)N[C@H]2C(=O)N[C@H]3C(=O)N[C@H](C(=O)N[C@H](C(=O)N[C@H](CCCNC(=N)N)C(N)=O)c4cc(O)cc(O)c4-c4cc3ccc4O)[C@H](O)c3ccc(c(Cl)c3)Oc3cc2cc(c3O[C@@H]2O[C@H](CO)[C@@H](O)[C@H](O)[C@H]2O[C@H]2C[C@](C)(N)[C@H](O)[C@H](C)O2)Oc2ccc(cc2Cl)[C@H]1O | 0.5 (≈ 0.312 µM) | 1 (≈ 0.623 µM) | 8 (≈ 4.99 µM) | 32 (≈ 19.9 µM) | 16 (≈ 9.97 µM) | 8 (≈ 4.99 µM) | 32 (≈ 19.9 µM) | 128 (≈ 79.8 µM) | > 128 |
| CC(=O)NCCCCNC(=O)[C@H]1NC(=O)[C@H]2NC(=O)[C@H](NC(=O)[C@@H]3NC(=O)[C@H](CC(N)=O)NC(=O)[C@H](NC(=O)[C@H](N)CC(C)C)[C@H](O)c4ccc(c(Cl)c4)Oc4cc3cc(c4O[C@@H]3O[C@H](CO)[C@@H](O)[C@H](O)[C@H]3O[C@H]3C[C@](C)(N)[C@H](O)[C@H](C)O3)Oc3ccc(cc3Cl)[C@H]2O)c2ccc(O)c(c2)-c2c(O)cc(O)cc21 | 4 (≈ 2.58 µM) | 8 (≈ 5.17 µM) | > 128 | 128 (≈ 82.7 µM) | > 128 | 128 (≈ 82.7 µM) | 128 (≈ 82.7 µM) | > 128 | 128 (≈ 82.7 µM) |
| CC(C)C[C@@H](N)C(=O)N[C@H]1C(=O)N[C@@H](CC(N)=O)C(=O)N[C@H]2C(=O)N[C@H]3C(=O)N[C@H](C(=O)N[C@H](C(=O)NCCCCNC(=N)N)c4cc(O)cc(O)c4-c4cc3ccc4O)[C@H](O)c3ccc(c(Cl)c3)Oc3cc2cc(c3O[C@@H]2O[C@H](CO)[C@@H](O)[C@H](O)[C@H]2O[C@H]2C[C@](C)(N)[C@H](O)[C@H](C)O2)Oc2ccc(cc2Cl)[C@H]1O | 1 (≈ 0.646 µM) | 2 (≈ 1.29 µM) | 32 (≈ 20.7 µM) | 64 (≈ 41.4 µM) | 32 (≈ 20.7 µM) | 8 (≈ 5.17 µM) | 128 (≈ 82.7 µM) | > 128 | 128 (≈ 82.7 µM) |
| CC(C)C[C@@H](N)C(=O)N[C@H]1C(=O)N[C@@H](CC(N)=O)C(=O)N[C@H]2C(=O)N[C@H]3C(=O)N[C@H](C(=O)N[C@H](C(=O)NCCN)c4cc(O)cc(O)c4-c4cc3ccc4O)[C@H](O)c3ccc(c(Cl)c3)Oc3cc2cc(c3O[C@@H]2O[C@H](CO)[C@@H](O)[C@H](O)[C@H]2O[C@H]2C[C@](C)(N)[C@H](O)[C@H](C)O2)Oc2ccc(cc2Cl)[C@H]1O | 2 (≈ 1.35 µM) | 4 (≈ 2.71 µM) | 128 (≈ 86.6 µM) | 128 (≈ 86.6 µM) | 128 (≈ 86.6 µM) | 32 (≈ 21.7 µM) | 128 (≈ 86.6 µM) | > 128 | > 128 |
| CC(C)C[C@@H](N)C(=O)N[C@H]1C(=O)N[C@@H](CC(N)=O)C(=O)N[C@H]2C(=O)N[C@H]3C(=O)N[C@H](C(=O)N[C@H](C(=O)NCCNC(=O)[C@@H](N)CCCNC(=N)N)c4cc(O)cc(O)c4-c4cc3ccc4O)[C@H](O)c3ccc(c(Cl)c3)Oc3cc2cc(c3O[C@@H]2O[C@H](CO)[C@@H](O)[C@H](O)[C@H]2O[C@H]2C[C@](C)(N)[C@H](O)[C@H](C)O2)Oc2ccc(cc2Cl)[C@H]1O | 1 (≈ 0.612 µM) | 2 (≈ 1.22 µM) | 16 (≈ 9.79 µM) | 64 (≈ 39.2 µM) | 16 (≈ 9.79 µM) | 32 (≈ 19.6 µM) | 64 (≈ 39.2 µM) | > 128 | 128 (≈ 78.4 µM) |
